We go through 2 compounds from patent US20040014807A1, “Phenalenone derivatives, processes for preparation and use thereof” (priority 2002, published 2004).

The nature of series [1]: reaction with atmospheric oxygen (antioxidant action). It counts as physicochemical. The settings on record: in solution and in solid form. The text has this: The compounds of the formula (I) can also be used as antioxidants. Antioxidants (oxidation inhibitors) are organic compounds which inhibit or prevent undesired changes in the substances to be protected caused by the effects of oxygen. Antioxidants are needed, for example, in plastics for protection against ageing, in fats for protection against rancidity, in oils against resinification, in aromatic substances against odor impairment, in foodstuffs, and in pharmaceuticals. The action of the antioxidants usually consists in acting as radical scavengers for the free radicals occurring in the oxidation. The antioxidative action of atrovenetin (compound of the formula (III)) has already been described by Y. Ishikawa et al. (J. Am. Oil Chem. Soc. 68, 666-668, 1991). Microbial antioxidants, however, are often too weak or not highly tolerable in their action. There is therefore a great need for novel, efficacious and tolerable antioxidants. […] This increased affinity of penilenone for oxygen, however, is decidedly advantageous for very oxidation-sensitive substances.

The subject of another series is Streptomyces murinus. The series can be described thus: agar diffusion test (antibiogram on solid nutrient plates with antibiotic diffusion). It is filed as cell-based. Particulars: agar plate containing Streptomyces murinus culture. The procedure: Moreover to be emphasized is an antimicrobial inhibitory action of the compounds of formula (I) according to the invention on bacteria, such as, for example, Staphylococcus aureus, Streptomyces murinus and against fungi, such as Aspergillus niger, which can cause stubborn, life-threatening infectious diseases. […] Thus, penilenone on an agar plate containing Streptomyces murinus culture in a solution of 1 mg per mL causes an inhibition halo of 11 mm and in a solution of 0.1 mg per mL an inhibition halo of 8 mm. The compounds of the formula (I) according to the invention are therefore likewise suitable for the treatment and/or prophylaxis of bacterial infections and/or fungal diseases (micosis or mycoses).
(A growth-free zone around the sample is the usual read-out of agar diffusion tests.)

A short description of series [2]: stability (physicochemical properties). The text has this:
(§1) The melting point is not determinable because of decomposition. Stable in mildly acidic medium under reducing conditions. Under the influence of oxygen, penilenone turns green in neutral medium or in the presence of amines.

Series [3] is described as follows: solubility (physicochemical properties).
Text: as §1

As to `Cc1cc(O)c2c3c(c(O)c4c(c13)OC(C)C4(C)C)C(O)=C(O)C2=O` (centres unmarked) [atrovenetin, reference compound], the “reaction with atmospheric oxygen” value in series [1] is “reacts only slowly with atmospheric oxygen”.
Regarding `Cc1cc(O)c2c3c(c(O)cc(O)c13)C(O)=C(O)C2=O` [penilenone], the inhibition halo in the series on Streptomyces murinus (solution of 0.1 mg per mL) worked out at 8 mm; in the series on Streptomyces murinus (solution of 1 mg per mL), 11 mm. For the same compound, in series [1], the “reaction with atmospheric oxygen” value is given as “combines with oxygen within seconds or in a few minutes”. Moreover, in series [2] (mildly acidic medium under reducing conditions), the stability entry was “Stable”. Moreover, in series [2] (neutral medium or in the presence of amines), the “behaviour under the influence of oxygen” value is given as “turns green”. The “solubility in organic solvents” value in series [3] (medium polar and polar organic solvents) is “soluble in medium polar and polar organic solvents”. Besides, the solubility in water entry in series [3] (water) is “not very soluble in water”.
